How the values were obtained:
[1] = Polystyrene-water partition of citral; assay type: physicochemical
Excerpt: The polymer matrix should not dissolve through bulk degradation or boundary degradation as it is very inert and unreactive, plus divinylbenzene provides additional stability. […] This is extremely high: its predicts the existence of approximately 5000 molecules of citral within the nanocapsule core or polystyrene shell for every molecule in surrounding water. This dictates a fixed equilibrium between concentration in polystyrene nanocapsule Cp and surrounding water Cw given by the equation: Cp/Cw=10^3.7=5011

[2] = molecular target: leucine dehydrogenase (Bacillus subtilis, UniProt P54531); conditions: cited from earlier work
Chain of leucine dehydrogenase (P54531 whole entry): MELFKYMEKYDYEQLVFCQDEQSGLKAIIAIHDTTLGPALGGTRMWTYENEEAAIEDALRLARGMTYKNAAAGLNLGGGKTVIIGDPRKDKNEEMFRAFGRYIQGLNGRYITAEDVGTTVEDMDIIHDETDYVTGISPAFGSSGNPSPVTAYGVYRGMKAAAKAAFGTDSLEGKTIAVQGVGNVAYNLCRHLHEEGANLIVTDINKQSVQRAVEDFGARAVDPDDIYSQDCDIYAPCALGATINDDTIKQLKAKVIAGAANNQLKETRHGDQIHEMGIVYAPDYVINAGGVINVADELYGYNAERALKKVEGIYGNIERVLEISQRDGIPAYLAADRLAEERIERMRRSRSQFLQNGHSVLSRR

## CC(C)=CCCC(C)=CC=O [citral]
[1]
  Molecules within the nanocapsule core or polystyrene shell for every molecule in surrounding water: approximately 5000
[2]
  Binding affinity compared with branched chain amino acids: higher binding affinity

From patent US20190343190A1, “MATERIALS INCLUDING POLYMERIC FIBERS INCORPORATING MICROCAPSULES OR NANOCAPSULES INCLUDING AN ESSENTIAL OIL” (President and Fellows of Harvard College, priority 2016, published 2019)
